# Data: patent publication US8278032B2, “Transporter protein in mammal and utilization of the same” (priority 2005, dated 2012)
# Key:
# hMATE1 = biological target: T1, hMATE1 (Homo sapiens, UniProt Q96FL8); assay: Inhibition of RI-labeled TEA uptake in HEK293 cells expressing hMATE1; details: for TEA uptake activity percent taking the level with addition of no compound as 100% (% ± S.D.): 50 μM RI-labeled TEA, pH 8.0, HEK293 cells expressing hMATE1; for Inhibition of TEA uptake activity (in words, summary of Table 1): MATE1 expressing HEK293 cells, 50 μM TEA, pH 8.0; for Effect on TEA uptake activity (in words): valinomycin 5 μM with 65 mM potassium chloride, nigericin 5 μM with potassium chloride, SF6847 10 μM
# T1 sequence (Q96FL8 1-570): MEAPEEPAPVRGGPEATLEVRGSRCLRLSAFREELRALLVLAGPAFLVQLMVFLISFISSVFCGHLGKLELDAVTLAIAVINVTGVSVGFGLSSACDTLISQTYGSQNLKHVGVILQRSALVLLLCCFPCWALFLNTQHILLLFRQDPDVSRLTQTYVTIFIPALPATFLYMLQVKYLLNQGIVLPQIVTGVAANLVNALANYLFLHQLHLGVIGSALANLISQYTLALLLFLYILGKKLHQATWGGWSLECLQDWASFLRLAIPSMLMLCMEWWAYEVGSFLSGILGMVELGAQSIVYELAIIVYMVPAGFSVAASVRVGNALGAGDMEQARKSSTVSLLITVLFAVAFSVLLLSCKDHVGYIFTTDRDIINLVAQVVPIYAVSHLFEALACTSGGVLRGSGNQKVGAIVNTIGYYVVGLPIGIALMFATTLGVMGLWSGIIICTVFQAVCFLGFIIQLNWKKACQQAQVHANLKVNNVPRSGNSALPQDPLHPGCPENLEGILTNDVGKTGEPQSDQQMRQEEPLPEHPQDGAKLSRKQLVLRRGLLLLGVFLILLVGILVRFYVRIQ
# mMATE1 = biological target: T2, mMATE1 (Mus musculus, UniProt Q8K0H1); assay: Inhibition of RI-labeled TEA uptake in HEK293 cells expressing mMATE1; assay type: cell-based; details: compound 0.1 mM; 50 μM RI-labeled TEA, pH 8.0, HEK293 cells expressing mMATE1; read-out: TEA uptake activity percent taking the level with addition of no compound as 100% (% ± S.D.);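 note: transfected HEK293 cells held 5 min at 37 °C before tracer addition, uptake read as radioactivity retained on a 0.45-µm membrane filter, mean ± SD of three to nine experiments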
# T2 construct: expressed in transfected cells; host or cells: HEK293
# T2 sequence (Q8K0H1 with tags, fused parts or gaps): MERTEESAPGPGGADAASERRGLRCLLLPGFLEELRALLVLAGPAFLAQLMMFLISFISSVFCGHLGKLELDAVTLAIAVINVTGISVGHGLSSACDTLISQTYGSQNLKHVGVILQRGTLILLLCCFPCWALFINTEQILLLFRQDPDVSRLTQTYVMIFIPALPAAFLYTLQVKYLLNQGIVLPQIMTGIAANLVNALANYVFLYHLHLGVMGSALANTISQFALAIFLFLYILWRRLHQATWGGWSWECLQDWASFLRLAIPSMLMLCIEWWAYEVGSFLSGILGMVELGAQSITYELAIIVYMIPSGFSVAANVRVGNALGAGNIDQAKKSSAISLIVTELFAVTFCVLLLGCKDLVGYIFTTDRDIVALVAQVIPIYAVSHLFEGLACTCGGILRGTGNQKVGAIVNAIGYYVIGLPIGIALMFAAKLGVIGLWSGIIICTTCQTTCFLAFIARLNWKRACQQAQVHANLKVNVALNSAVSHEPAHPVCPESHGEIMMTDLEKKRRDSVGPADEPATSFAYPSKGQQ
# [1] = HEK293 cells expressing human MATE1, FIG. 9(e)
molecule,measurement,setting,value
C=C[C@H]1C[N@@]2CC[C@H]1C[C@H]2[C@H](O)c1ccnc2ccc(OC)cc12 [Quinine],TEA uptake activity percent taking the level with addition of no compound as 100% (% ± S.D.),hMATE1; compound 0.01 mM,30.4 ± 2.8%
CC(C)NCC(O)COc1cccc2ccccc12 (stereo not shown) [Propranolol],TEA uptake activity percent taking the level with addition of no compound as 100% (% ± S.D.),hMATE1; compound 0.1 mM,30.1 ± 3.9%
CC(=O)[C@H]1CC[C@H]2[C@@H]3CCC4=CC(=O)CC[C@]4(C)[C@H]3CC[C@]12C [Progesterone],"Inhibition of TEA uptake activity (in words, summary of Table 1)",hMATE1,inhibited
same,TEA uptake activity percent taking the level with addition of no compound as 100% (% ± S.D.),hMATE1; compound 0.1 mM,31.7 ± 5.6%
same,remaining activity at 100 µM,mMATE1,9.3 ± 1.6%
CC(C)[C@@H]1NC(=O)[C@H](C)OC(=O)[C@@H](C(C)C)NC(=O)[C@@H](C(C)C)OC(=O)[C@H](C(C)C)NC(=O)[C@H](C)OC(=O)[C@@H](C(C)C)NC(=O)[C@@H](C(C)C)OC(=O)[C@H](C(C)C)NC(=O)[C@H](C)OC(=O)[C@@H](C(C)C)NC(=O)[C@@H](C(C)C)OC1=O [valinomycin],Effect on TEA uptake activity (in words),hMATE1; [1],not affected
NC12CC3CC(CC(C3)C1)C2 [Amantadine],TEA uptake activity percent taking the level with addition of no compound as 100% (% ± S.D.),hMATE1; compound 0.1 mM,75.5 ± 9.8%
CC(C)(c1ccc(O)cc1)c1ccc(O)cc1 [Bisphenol A],TEA uptake activity percent taking the level with addition of no compound as 100% (% ± S.D.),hMATE1; compound 0.01 mM,113.9 ± 2.1%
N.N.[Cl][Pt][Cl] [Cisplatin],TEA uptake activity percent taking the level with addition of no compound as 100% (% ± S.D.),hMATE1; compound 1 mM,35.6 ± 6.0%
para-aminobutyric acid,"Inhibition of TEA uptake activity (in words, summary of Table 1)",hMATE1,not inhibited
NCCCCNCCCN [Spermidine],TEA uptake activity percent taking the level with addition of no compound as 100% (% ± S.D.),hMATE1; compound 0.05 mM,97.0 ± 11.4%
Tocopherol,TEA uptake activity percent taking the level with addition of no compound as 100% (% ± S.D.),hMATE1; compound 0.1 mM,78.8 ± 9.6%
C[C@@H]1O[C@@H](O[C@H]2C[C@@H](O)[C@]3(CO)[C@H]4[C@H](O)C[C@]5(C)[C@@H](C6=CC(=O)OC6)CC[C@]5(O)[C@@H]4CC[C@]3(O)C2)[C@H](O)[C@H](O)[C@H]1O [Ouabain],TEA uptake activity percent taking the level with addition of no compound as 100% (% ± S.D.),hMATE1; compound 0.01 mM,115.9 ± 6.6%
CCc1nc(N)nc(N)c1-c1ccc(Cl)cc1 [Pyrimethamine],TEA uptake activity percent taking the level with addition of no compound as 100% (% ± S.D.),hMATE1; compound 0.00001 mM,45.2 ± 3.5%
same,TEA uptake activity percent taking the level with addition of no compound as 100% (% ± S.D.),hMATE1; compound 0.0001 mM,19.8 ± 1.6%
O=C(CCCN1CC=C(n2c(=O)[nH]c3ccccc32)CC1)c1ccc(F)cc1 [Droperidol],TEA uptake activity percent taking the level with addition of no compound as 100% (% ± S.D.),hMATE1; compound 0.001 mM,74.1 ± 14.7%
CN(C)C(=N)N=C(N)N [Metformin],TEA uptake activity percent taking the level with addition of no compound as 100% (% ± S.D.),hMATE1; compound 0.1 mM,120.5 ± 9.4%
Cl.N [ammonium chloride],TEA uptake activity inhibited by,"hMATE1; HEK293 cells expressing human MATE1, FIG. 9(e), concentration not given",60%
CN1[C@@H]2CC[C@H]1C[C@@H](OC(=O)C(CO)c1ccccc1)C2 (stereo partly shown) [Atropine],TEA uptake activity percent taking the level with addition of no compound as 100% (% ± S.D.),hMATE1; compound 0.1 mM,74.6 ± 5.5%
C[C@]12CC[C@@H](O)C[C@@H]1CC[C@@H]1[C@@H]2CC[C@]2(C)C(=O)CC[C@@H]12 [androsterone],"Inhibition of TEA uptake activity (in words, summary of Table 1)",hMATE1,inhibited
CC(C)(C)c1cc(C=C(C#N)C#N)cc(C(C)(C)C)c1O [SF6847],Effect on TEA uptake activity (in words),hMATE1; [1],greatly decreased
COc1ccc(Cc2nccc3cc(OC)c(OC)cc23)cc1OC [Papaverine],TEA uptake activity percent taking the level with addition of no compound as 100% (% ± S.D.),hMATE1; compound 0.01 mM,26.8 ± 2.7%
